≈ marks a conversion by molar mass, not a printed value. Where two headings read alike, the source gives them in different places. Blank lines part the entries; values can stand above or below the compound they belong to.
Legend:
[1] = Stability study (appearance, HPLC, IR) in stability chambers; assay type: physicochemical; conditions: for % compd 1 / % compd 2: HPLC
Description: 100 mg±2% of compound 1 was weighed into each 20 mL scintillation vial. The vials were capped with appropriate caps and sealed with Parafilm to prevent moisture entrapment. Stability for the test compounds synthesized from different log was tested. Twelve vials for each lot were prepared and distributed into respective stability chambers to initiate their stability study according to the following protocol.
Stability of the test compound was determined by its appearance and by analytical methods such as HPLC and IR. The IR test was performed for all time points under the two conditions listed above using material in one vial.
Compound 1 contains trace amount of compound 2 shown below. The amounts of compound 1 and 2 present at each time point were analyzed by HPLC.

[2] = Solubility of Form A and Form D; assay type: physicochemical; conditions: shake time 24 hour; for solubility at 24 h: organic solvent or mixture, thermodynamic from solid
[3] = system: stage IV metastatic melanoma; conditions: in combination with taxol, relative to patients treated with paclitaxel alone; cited from earlier work
[4] = Reconstitution test in 50:50 Cremophor EL/Ethanol; assay type: physicochemical; conditions: 266 mg in 16.7 ml 50:50 Cremophor EL/Ethanol
Description: As used herein, the reconstitution time is measured in 50:50 Cremophor EL/ethanol solution at ambient temperature (e.g., 18-25° C.) The reconstitution time can be measure according to the procedure described in Example 7. For example, the reconstitution time is measured by dissolving 266 mg of compound 1 in 16.7 mL of 50:50 Cremophor EL/ethanol solution with manual shaking or mechanical shaking at a speed of 232-236 rpm.
50:50 Cremophor EL/Ethanol was prepared and filtered through a 0.45 μm filter and used for testing. 266 mg of compound 1 was weighed into a 50 mL glass vial with a rubber stopper. 16.7 ml of filtered 50:50 Cremophor EL/Ethanol solution was taken by a syringe and needle and added into the vial. The vial was shaken either manually, or on a mechanical shaker at a speed of 232-236 rpm. The reconstitution time was determined with three vials. At different time points, vials were subject to visual observation.

Sieve-cut test = assay type: physicochemical; conditions: 300 micron screen
Description: […] 5 g to 20 g samples were used, depending on the batch size. The mass and percentage of material collected in the receiver were measured.

Appearance ([1]; 25° C./60% RH, 0 months): Pale-yellow
FT-IR ([1]; 25° C./60% RH, 0 months): Form D
Appearance ([1]; 25° C./60% RH, 1 month): Pale-yellow
FT-IR ([1]; 25° C./60% RH, 1 month): Form D
Appearance ([1]; 25° C./60% RH, 3 months): Pale-yellow
FT-IR ([1]; 25° C./60% RH, 3 months): Form D
Appearance ([1]; 25° C./60% RH, 6 months): Pale yellow
FT-IR ([1]; 25° C./60% RH, 6 months): Form D
Appearance ([1]; 25° C./60% RH, 9 months): Pale yellow
FT-IR ([1]; 25° C./60% RH, 9 months): Form D
Appearance ([1]; 25° C./60% RH, 12 months): Pale yellow
FT-IR ([1]; 25° C./60% RH, 12 months): Form D
Appearance ([1]; 40° C./75% RH, 0 months): Pale-
FT-IR ([1]; 40° C./75% RH, 0 months): Form D
Appearance ([1]; 40° C./75% RH, 0.5 months): Pale-yellow
FT-IR ([1]; 40° C./75% RH, 0.5 months): Form D
Appearance ([1]; 40° C./75% RH, 1 month): Pale-
FT-IR ([1]; 40° C./75% RH, 1 month): Form D
Appearance ([1]; 40° C./75% RH, 3 months): Pale-yellow
FT-IR ([1]; 40° C./75% RH, 3 months): Form D
Appearance ([1]; 40° C./75% RH, 6 months): Pale-
FT-IR ([1]; 40° C./75% RH, 6 months): Form D
% compd 1 ([1]; 25° C./60% RH, 0 months): 99.0%
% compd 2 ([1]; 25° C./60% RH, 0 months): 1.30%
% compd 1 ([1]; 25° C./60% RH, 1 month): 98.8%
% compd 2 ([1]; 25° C./60% RH, 1 month): 1.28%
% compd 1 ([1]; 25° C./60% RH, 3 months): 99.0%
% compd 2 ([1]; 25° C./60% RH, 3 months): 1.31%
% compd 1 ([1]; 25° C./60% RH, 6 months): 99.0%
% compd 2 ([1]; 25° C./60% RH, 6 months): 1.28%
% compd 1 ([1]; 25° C./60% RH, 9 months): 97.5%
% compd 2 ([1]; 25° C./60% RH, 9 months): 1.38%
% compd 1 ([1]; 25° C./60% RH, 12 months): 98.0%
% compd 2 ([1]; 25° C./60% RH, 12 months): 1.33%
% compd 1 ([1]; 40° C./75% RH, 0 months): 99.0%
% compd 2 ([1]; 40° C./75% RH, 0 months): 1.30%
% compd 1 ([1]; 40° C./75% RH, 0.5 months): 99.7%
% compd 2 ([1]; 40° C./75% RH, 0.5 months): 1.28%
% compd 1 ([1]; 40° C./75% RH, 1 month): 95.8%
% compd 2 ([1]; 40° C./75% RH, 1 month): 1.28%
% compd 1 ([1]; 40° C./75% RH, 3 months): 98.9%
% compd 2 ([1]; 40° C./75% RH, 3 months): 1.33%
% compd 1 ([1]; 40° C./75% RH, 6 months): 98.4%
% compd 2 ([1]; 40° C./75% RH, 6 months): 1.31%
SMILES: CN(NC(=O)CC(=O)NN(C)C(=S)c1ccccc1)C(=S)c1ccccc1 [Lot #1, N-malonyl-bis(N′-methyl-N′-thiobenzoylhydrazide)]

Solubility in 50:50 Cre/EtOH, Vial1 ([2]; 50:50 Cremophor/EtOH, Vial1): 42690 µg/mL (≈ 107 mM)
Solubility in 50:50 Cre/EtOH, Vial2 ([2]; 50:50 Cremophor/EtOH, Vial2): 42740 µg/mL (≈ 107 mM)
Solubility in 50:50 Cre/EtOH, Average ([2]; 50:50 Cremophor/EtOH, average of two vials): 42700 µg/mL (≈ 107 mM)
Solubility in EtOAc, Vial1 ([2]; EtOAc, Vial1): 7410 µg/mL (≈ 18.5 mM)
Solubility in EtOAc, Vial2 ([2]; EtOAc, Vial2): 7500 µg/mL (≈ 18.7 mM)
Solubility in EtOAc, Average ([2]; EtOAc, average of two vials): 7500 µg/mL (≈ 18.7 mM)
Solubility in EtOH, Vial1 ([2]; EtOH, Vial1): 9760 µg/mL (≈ 24.4 mM)
Solubility in EtOH, Vial2 ([2]; EtOH, Vial2): 9750 µg/mL (≈ 24.3 mM)
Solubility in EtOH, Average ([2]; EtOH, average of two vials): 9800 µg/mL (≈ 24.5 mM)
SMILES: CN(NC(=O)CC(=O)NN(C)C(=S)c1ccccc1)C(=S)c1ccccc1 [Form D, N-malonyl-bis(N′-methyl-N′-thiobenzoylhydrazide)]

Appearance ([1]; 25° C./60% RH, 0 months): Pale-yellow
FT-IR ([1]; 25° C./60% RH, 0 months): Form D
Appearance ([1]; 25° C./60% RH, 1 month): Pale-yellow
FT-IR ([1]; 25° C./60% RH, 1 month): Form D
Appearance ([1]; 25° C./60% RH, 3 months): Pale-yellow
FT-IR ([1]; 25° C./60% RH, 3 months): Form D
Appearance ([1]; 25° C./60% RH, 6 months): Pale-yellow
FT-IR ([1]; 25° C./60% RH, 6 months): Form D
Appearance ([1]; 25° C./60% RH, 9 months): Pale-yellow
FT-IR ([1]; 25° C./60% RH, 9 months): Form D
Appearance ([1]; 25° C./60% RH, 12 months): Pale-yellow
FT-IR ([1]; 25° C./60% RH, 12 months): Form D
Appearance ([1]; 40° C./75% RH, 0 months): Pale-
FT-IR ([1]; 40° C./75% RH, 0 months): Form D
Appearance ([1]; 40° C./75% RH, 0.5 months): Pale-yellow
FT-IR ([1]; 40° C./75% RH, 0.5 months): Form D
Appearance ([1]; 40° C./75% RH, 1 month): Pale-
FT-IR ([1]; 40° C./75% RH, 1 month): Form D
Appearance ([1]; 40° C./75% RH, 3 months): Pale-yellow
FT-IR ([1]; 40° C./75% RH, 3 months): Form D
Appearance ([1]; 40° C./75% RH, 6 months): Pale-
FT-IR ([1]; 40° C./75% RH, 6 months): Form D
% compd 1 ([1]; 25° C./60% RH, 0 months): 99.7%
% compd 2 ([1]; 25° C./60% RH, 0 months): 0.15%
% compd 1 ([1]; 25° C./60% RH, 1 month): 98.6%
% compd 2 ([1]; 25° C./60% RH, 1 month): 0.14%
% compd 1 ([1]; 25° C./60% RH, 3 months): 100.2%
% compd 2 ([1]; 25° C./60% RH, 3 months): 0.15%
% compd 1 ([1]; 25° C./60% RH, 6 months): 99.6%
% compd 2 ([1]; 25° C./60% RH, 6 months): 0.13%
% compd 1 ([1]; 25° C./60% RH, 9 months): 98.9%
% compd 2 ([1]; 25° C./60% RH, 9 months): 0.13%
% compd 1 ([1]; 25° C./60% RH, 12 months): 99.7%
% compd 2 ([1]; 25° C./60% RH, 12 months): 0.13%
% compd 1 ([1]; 40° C./75% RH, 0 months): 99.7%
% compd 2 ([1]; 40° C./75% RH, 0 months): 0.15%
% compd 1 ([1]; 40° C./75% RH, 0.5 months): 99.6%
% compd 2 ([1]; 40° C./75% RH, 0.5 months): 0.14%
% compd 1 ([1]; 40° C./75% RH, 1 month): 100.3%
% compd 2 ([1]; 40° C./75% RH, 1 month): 0.16%
% compd 1 ([1]; 40° C./75% RH, 3 months): 100.2%
% compd 2 ([1]; 40° C./75% RH, 3 months): 0.19%
% compd 1 ([1]; 40° C./75% RH, 6 months): 101.7%
% compd 2 ([1]; 40° C./75% RH, 6 months): 0.18%
SMILES: CN(NC(=O)CC(=O)NN(C)C(=S)c1ccccc1)C(=S)c1ccccc1 [Lot #2, N-malonyl-bis(N′-methyl-N′-thiobenzoylhydrazide)]

Re-constitution time (min) for specific sieve-cut ([4]; 500 micron sieve-cut): >>25, 500 micron min
% by weight that passed through a specific size screen, % (Sieve-cut test): Does not pass
SMILES: CN(NC(=O)CC(=O)NN(C)C(=S)c1ccccc1)C(=S)c1ccccc1 [compound 1, N-malonyl-bis(N′-methyl-N′-thiobenzoylhydrazide)]
time to progression [3]: increase the time to progression

solubility at 24 h ([2]; 50:50 Cremophor/ethanol, 50:50 Cremophor/EtOH, Vial1, read-out: Solubility in 50:50 Cre/EtOH, Vial1): 24400 µg/mL (≈ 60.8 mM)
solubility at 24 h ([2]; 50:50 Cremophor/ethanol, 50:50 Cremophor/EtOH, Vial2, read-out: Solubility in 50:50 Cre/EtOH, Vial2): 24300 µg/mL (≈ 60.6 mM)
solubility at 24 h ([2]; 50:50 Cremophor/ethanol, 50:50 Cremophor/EtOH, average of two vials, read-out: Solubility in 50:50 Cre/EtOH, Average): 24300 µg/mL (≈ 60.7 mM)
solubility at 24 h ([2]; ethanol, EtOH, Vial1, read-out: Solubility in EtOH, Vial1): 6280 µg/mL (≈ 15.7 mM)
solubility at 24 h ([2]; ethanol, EtOH, Vial2, read-out: Solubility in EtOH, Vial2): 6450 µg/mL (≈ 16.1 mM)
solubility at 24 h ([2]; ethanol, EtOH, average of two vials, read-out: Solubility in EtOH, Average): 6400 µg/mL (≈ 16 mM)
solubility at 24 h ([2]; ethyl acetate, EtOAc, Vial1, read-out: Solubility in EtOAc, Vial1): 4690 µg/mL (≈ 11.7 mM)
solubility at 24 h ([2]; ethyl acetate, EtOAc, Vial2, read-out: Solubility in EtOAc, Vial2): 4690 µg/mL (≈ 11.7 mM)
solubility at 24 h ([2]; ethyl acetate, EtOAc, average of two vials, read-out: Solubility in EtOAc, Average): 4700 µg/mL (≈ 11.7 mM)
SMILES: CN(NC(=O)CC(=O)NN(C)C(=S)c1ccccc1)C(=S)c1ccccc1 [Form A, N-malonyl-bis(N′-methyl-N′-thiobenzoylhydrazide)]

Re-constitution time (min) for specific sieve-cut ([4]; 500 micron sieve-cut): greater than 25 min
SMILES: CN(NC(=O)CC(=O)NN(C)C(=S)c1ccccc1)C(=S)c1ccccc1 [Crystal Habit 1, N-malonyl-bis(N′-methyl-N′-thiobenzoylhydrazide)]

Re-constitution time (min) for specific sieve-cut ([4]; 500 micron sieve-cut): >>25, 500 micron min
% by weight that passed through a specific size screen, % (Sieve-cut test): Does not pass
SMILES: CN(NC(=O)CC(=O)NN(C)C(=S)c1ccccc1)C(=S)c1ccccc1 [compound 2]

Re-constitution time (min) for specific sieve-cut ([4]; 150 micron sieve-cut): less than or equal to 15 min
SMILES: CN(NC(=O)CC(=O)NN(C)C(=S)c1ccccc1)C(=S)c1ccccc1 [Crystal Habit 2, N-malonyl-bis(N′-methyl-N′-thiobenzoylhydrazide)]

Reference: patent publication US9051250B2, “Polymorphs of N-malonyl-bis(N′-methyl-N′-thiobenzoylhydrazide)” (Synta Pharmaceuticals Corp., priority 2007, dated 2015)
